Laboratory results as given in US12178840B2, “Method and compositions comprising a CT20 peptide” (UNIVERSITY OF CENTRAL FLORIDA RESEARCH FOUNDATION, INC., priority 2014, dated 2024).
Residues, ends and D or L forms follow the SMILES beside them.

Legend:
[1] = tested on: tubulin in MDA-MB-231 cells; experiment: Fixed cell immunofluorescence of tubulin; format: cell-based, human; settings: 24 hours of CT20p treatment
Method: Fixed cell immunofluorescence: Cells were seeded on glass coverslips (Fisher) in a 6-well plate at a density of 150,000 cells/well. Cells at 60% confluency were treated with CT20p or left untreated for 24 hours. After CT20p treatment, cells were stained with Mitotracker Red CMXRos (Life Technologies) at a concentration of 200 nM for 30 minutes, before being fixed in ice cold methanol for 10 minutes at −20° C. Cells were then permeabilized in 0.1% Triton X-100 for 10 minutes at 37° C. Samples were blocked in 5% normal goat serum (Santa Cruz) for 30 minutes at 37° C., then incubated with primary antibody α-tubulin (DM1A) (Santa Cruz) for 3 hours at 37° C. Secondary antibody was goat α-mouse IgG-FITC (Santa Cruz) and was applied for 1 hour at room temperature. Coverslips were mounted in UltraCruz mounting media (Santa Cruz), which contains DAPI for nuclear staining. Images were obtained with a Zeiss LSM 710 microscope, using a Zeiss 63× Pan-Apocromat oil immersion lens and Zeiss Zen software. To determine average tubulin levels per cell, the amount of FITC fluorescence intensity per region of interest was divided by the number of cells in the field. At least four images containing between 5 and 12 cells were quantified for each condition. Image analysis was done using Volocity software (Perkin Elmer).
CT20p's effect on the other main client of CCT, tubulin, was also examined. […]

CCTβ in MCF-10A cells = biological target: T1, CCTβ in MCF-10A cells (Homo sapiens, UniProt P78371); experiment: In-cell pull down (CT20p-biotin in HBPE-nanoparticles), blot for CCTβ; format: cell-based; settings: whole cell lysates
T1 construct: delivered to viable MDA-MB-231 and MCF-10A cells, followed by gentle cell lysis; endogenous in cells; host or cells: MCF-10A (untransfected)
Method: Pull down experiments: Lysate pull-downs were performed with 200 ug cell lysate, obtained by douncing as described above. Lysates were pre-cleared with streptavidin-agarose beads (Pierce), then incubated with […] of CT20-Biotin or biotin for 3 hours at room temperature, followed by overnight incubation at 4° C. with streptavidin-agarose beads. Beads were washed thoroughly with wash buffer (25 mM Tris, 150 mM NaCl, 0.1% NP40, pH7.4), then heated in 4× loading buffer (Invitrogen) for analysis by SDS-PAGE. Mass spectrometric analysis was performed by Moffit Cancer Center (Tampa, FL). Mass spectrometry results presented are of proteins with at least two unique peptides identified, and that were not recovered with biotin-only pull down. In-cell pull downs were performed by first delivering CT20p-Biotin encapsulated in nanoparticles to viable cells at a dose of 75 μg/mL for varying lengths of time. Following treatment, cells were collected and lysed by douncing. 200 ug of cell lysate were then incubated with streptavidin-agarose beads overnight at 4° C., and pull-down was completed as described above. […]
Because pull downs performed in cell lysates may emphasize non-specific protein interactions, we designed an in-cell pull down assay to better reflect interactions in the intracellular environment. […] Indeed, no pull down was detected with DiI-loaded nanoparticles.

[2] = tested on: MDA-MB-231 subcutaneous tumors; experiment: Tumor growth in mice bearing subcutaneous MDA-MB-231 tumors, nanoparticle treatment; format: in vivo
Description: Referring to FIG. 2A, the graph summarizes the results with FOL-NPs that were empty, contained Doxorubicin (DOX), or CT20, and are compared to COOH-NPs with CT20. Referring to FIG. 2B, representative ultrasound data is shown from mice treated with PBS or FOL-CT20-NPs. Arrows indicate treatment times. *p<0.05.
To test the ability of CT20 to inhibit tumor growth, HBPE-NPs were modified with folate (FOL) to target the folate receptor (FR) (Boohaker, R. J., et al. (2012) Mol. Pharm. 7, 2080-2093; Lee, M. W., et al. (2014) Cell Death Dis. 5). FR targeting enabled concentration of the HBPE-NPs in murine tumors during systemic delivery. FIG. 2 is a representative animal experiment in which MDA-MB-231 cells were used to form subcutaneous tumors. Mice (n=5) were treated with two subcutaneous injections of nanoparticles (2 mg/kg/dose) over a five week period. […] Referring to FIG. 2B, representative ultrasound data is shown from mice treated with PBS or FOL-CT20-NPs. Arrows indicate treatment times. *p<0.05.

MDA-MB-436 cells = format: cell-based, human; settings: 75 ug/mL, time course
Method: Measurement of cell viability: Cells at 60% confluency were treated with CT20p at a dose of 75 ug/mL for varying lengths of time. Following treatment, cells were collected and stained with Sytox AADvanced and F2N12S Violet Ratiometric Apoptosis kit (Invitrogen). Data was acquired by flow cytometry on a FACS Canto (BD Biosciences), and analyzed with FCSExpress software (DeNovo).
The cytotoxicity of CT20p to the cell lines was also assessed. To do this, cells were treated with the effective dose of CT20p in a time course-experiment, and membrane symmetry and permeability were examined by flow cytometry (FIG. 5B). […] BT-549 cells, on the other hand, were resistant to the effects of the peptide.

[3] = tested on: cells isolated from primary breast tumors; experiment: Lethality in cells isolated from primary breast tumors; format: cell-based, human; settings: CT20 peptide in HBPE-NPs
Description: 40× magnification. CCTβ was detected in invasive breast cancer.
The lethality of CT20 was also examined in cells isolated from primary breast tumors and paired normal tissue. […] To this end, the levels of CCTβ were examined in a pilot tissue array of breast cancer tissue cores by immunohistochemistry (IHC) and detected CCTβ in invasive breast cancer (FIG. 14B).

CC[C@H](C)[C@H](NC(=O)[C@@H](NC(=O)[C@H](CC(C)C)NC(=O)[C@H](CO)NC(=O)[C@H](C)NC(=O)[C@@H](NC(=O)[C@H](CC(C)C)NC(=O)[C@@H](NC(=O)CNC(=O)[C@H](C)NC(=O)[C@@H](NC(=O)[C@H](Cc1ccccc1)NC(=O)[C@@H](NC(=O)[C@@H](NC(=O)[C@@H](NC(C)=O)C(C)C)[C@@H](C)O)[C@@H](C)CC)C(C)C)C(C)C)[C@@H](C)O)[C@@H](C)O)C(=O)N[C@@H](Cc1c[nH]c2ccccc12)C(=O)N[C@@H](CCCCN)C(=O)N[C@@H](CCCCN)C(=O)N[C@@H](CCSC)C(=O)NCC(N)=O [CT20] (Ac-VTIFVAGVLTASLTIWKKMG-NH2)
Amount of tubulin per cell [1]: significant decrease
Effect on total CCTβ protein levels (CCTβ in MCF-10A cells): does not affect
Effectiveness compared with Doxorubicin ([2]; CT20 delivered in HBPE-NPs): as effective, if not more, than drugs such as Doxorubicin
Inhibition of tumor growth ([2]; two subcutaneous injections of nanoparticles (2 mg/kg/dose) over five weeks): caused tumor regression
Earliest time at which characteristics of cell death were displayed (MDA-MB-436 cells): 6 h
Lethality [3]: killed the tumor cells
